# Data published in US10023590B2, “Substituted pyridine compounds having herbicidal activity” (BASF SE, priority 2014, dated 2018).
# Experiments:
# Format in all cases: in vivo
# Digitaria sanguinalis = test: Greenhouse post-emergence herbicidal activity, DIGSA; conditions: scale 0 to 100
# Description: (§1) The culture containers used were plastic flowerpots containing loamy sand with approximately 3.0% of humus as the substrate. The seeds of the test plants were sown separately for each species.
# (§2) For the post-emergence treatment, the test plants were first grown to a height of 3 to 15 cm, depending on the plant habit, and only then treated with the active ingredients which had been suspended or emulsified in water. For this purpose, the test plants were either sown directly and grown in the same containers, or they were first grown separately as seedlings and transplanted into the test containers a few days prior to treatment.
# (§3) Depending on the species, the plants were kept at 10-25° C. or 20-35° C., respectively.
# (§4) The test period extended over 2 to 4 weeks. During this time, the plants were tended, and their response to the individual treatments was evaluated.
# (§5) Evaluation was carried out using a scale from 0 to 100. 100 means no emergence of the plants, or complete destruction of at least the aerial moieties, and 0 means no damage, or normal course of growth. A good herbicidal activity is given at values of at least 70 and a very good herbicidal activity is given at values of at least 85.
# Kochia scoparia = test: Greenhouse post-emergence herbicidal activity, KCHSC; conditions: scale 0 to 100
# Description: as §1, §2, §3, §4, §5
# Setaria faberi = test: Greenhouse post-emergence herbicidal activity, SETFA; conditions: scale 0 to 100
# Description: as §1, §2, §3, §4, §5
# Cirsium arvense = test: Greenhouse post-emergence herbicidal activity, CIRAR; conditions: CIRAR; for pest or weed control at 125 g/ha: 0.125 kg/ha
# Description: as §1, §2, §3, §4, §5
# Oryza sativa = test: Greenhouse post-emergence herbicidal activity on crop ORYSA (rice)
# Description: as §1, §2, §3, §4, §5
# Zea mays = test: Greenhouse post-emergence herbicidal activity on crop ZEAMX (corn, maize); parameters: key: 0 = no damage/normal growth, 100 = no emergence or complete destruction
# Description: as §1, §2, §3, §4, §5
# Amaranthus retroflexus = test: Greenhouse post-emergence herbicidal activity, AMARE; conditions: AMARE; for pest or weed control at 2000 g/ha: 2 kg/ha, scale 0 to 100, read-out: Herbicidal activity
# Description: as §1, §2, §3, §4, §5
# Abutilon theophrasti = test: Greenhouse post-emergence herbicidal activity, ABUTH; conditions: ABUTH; for pest or weed control at 2000 g/ha: 2 kg/ha, scale 0 to 100, read-out: Herbicidal activity
# Description: as §1, §2, §3, §4, §5
# Stellaria media = test: Greenhouse post-emergence herbicidal activity, STEME; conditions: scale 0 to 100
# Description: as §1, §2, §3, §4, §5
# Polygonum persicaria = test: Greenhouse post-emergence herbicidal activity, POLPE; conditions: 0.063 kg/ha, scale 0 to 100
# Description: as §1, §2, §3, §4, §5
# Chenopodium album = test: Greenhouse post-emergence herbicidal activity, CHEAL; conditions: scale 0 to 100; for pest or weed control at 31 g/ha: 0.031 kg/ha; for pest or weed control at 63 g/ha: 0.063 kg/ha; for pest or weed control at 125 g/ha: 0.125 kg/ha
# Description: as §1, §2, §3, §4, §5
# Setaria viridis = test: Greenhouse post-emergence herbicidal activity, SETVI; conditions: 2 kg/ha, scale 0 to 100
# Description: as §1, §2, §3, §4, §5
# Ambrosia artemisiifolia = test: Greenhouse post-emergence herbicidal activity, AMBEL; conditions: scale 0 to 100
# Description: as §1, §2, §3, §4, §5
# Echinocloa crus-galli = test: Greenhouse post-emergence herbicidal activity, ECHCG; conditions: Echinochloa crus-galli, ECHCG; for pest or weed control at 2000 g/ha: 2 kg/ha, scale 0 to 100, read-out: Herbicidal activity
# Description: as §1, §2, §3, §4, §5
# Veronica arvensis = test: Greenhouse post-emergence herbicidal activity, VERAR; conditions: scale 0 to 100
# Description: as §1, §2, §3, §4, §5
# Capsella bursa-pastoris = test: Greenhouse post-emergence herbicidal activity, CAPBP; conditions: 0.063 kg/ha, scale 0 to 100
# Description: as §1, §2, §3, §4, §5
# Erigeron canadensis = test: Greenhouse post-emergence herbicidal activity, ERICA
# Description: as §1, §2, §3, §4, §5
# Eriochloa villosa = test: Greenhouse post-emergence herbicidal activity, ERBVI; conditions: 0.031 kg/ha, scale 0 to 100
# Description: as §1, §2, §3, §4, §5
# [1] = ORYSA (rice, crop), 0.031 kg/ha, scale 0 to 100
# [2] = ORYSA (rice, crop), 0.063 kg/ha, scale 0 to 100
# [3] = ZEAMX (corn, crop), 0.031 kg/ha, scale 0 to 100
# [4] = ZEAMX (corn, crop), 0.063 kg/ha, scale 0 to 100
# [5] = ZEAMX (corn, crop), 0.125 kg/ha, scale 0 to 100
# [6] = ORYSA (rice, crop), 0.125 kg/ha, scale 0 to 100
SMILES,Herbicidal activity (Oryza sativa; [1]),Herbicidal activity (Oryza sativa; [2]),Herbicidal activity (Zea mays; [3]),Herbicidal activity (Zea mays; [4]),Herbicidal activity (Zea mays; [5]),"pest or weed control at 31 g/ha (Amaranthus retroflexus; 0.031 kg/ha, scale 0 to 100) [%]","pest or weed control at 63 g/ha (Amaranthus retroflexus; 0.063 kg/ha, scale 0 to 100) [%]","pest or weed control at 125 g/ha (Amaranthus retroflexus; 0.125 kg/ha, scale 0 to 100) [%]",pest or weed control at 2000 g/ha (Amaranthus retroflexus) [%],pest or weed control at 31 g/ha (Chenopodium album) [%],pest or weed control at 63 g/ha (Chenopodium album) [%],pest or weed control at 125 g/ha (Chenopodium album) [%],Herbicidal activity (Oryza sativa; [6]),pest or weed control at 2000 g/ha (Abutilon theophrasti) [%],Herbicidal activity (Setaria viridis),other results
"CS(=O)(=O)Nc1ccc(Cl)c(C2=C(O)c3ncccc3CS2(=O)=O)c1Cl [I-5, N-[2,4-dichloro-3-(8-hydroxy-6,6-dioxo-5H-thiopyrano[4,3-b]pyridin-7-yl)phenyl]methanesulfonamide]",25,35,0,0,0,75,95,95,98,,,,,,,"Herbicidal activity (Digitaria sanguinalis; 0.063 kg/ha): 90; Herbicidal activity (Digitaria sanguinalis; 0.125 kg/ha): 95; Herbicidal activity (Kochia scoparia; 0.031 kg/ha): 90; Herbicidal activity (Kochia scoparia; 0.063 kg/ha): 95; Herbicidal activity (Setaria faberi; 2 kg/ha): 100; pest or weed control at 31 g/ha (Cirsium arvense; 0.031 kg/ha, scale 0 to 100): 75%; pest or weed control at 125 g/ha (Cirsium arvense; scale 0 to 100): 90%"
"CN(c1ccc(Cl)c(C2=C(O)c3ncccc3C(C)(C)S2(=O)=O)c1Cl)S(C)(=O)=O [I-7, N-[2,4-dichloro-3-(8-hydroxy-5,5-dimethyl-6,6-dioxo-thiopyrano[4,3-b]pyridin-7-yl)phenyl]-N-methyl-methanesulfonamide]",0,0,0,0,20,,,90,,95,85,98,10,,,"pest or weed control at 250 g/ha (Abutilon theophrasti; 0.25 kg/ha, scale 0 to 100): 100%; Herbicidal activity (Stellaria media; 0.063 kg/ha): 100; Herbicidal activity (Stellaria media; 0.125 kg/ha): 100; Herbicidal activity (Stellaria media; 0.25 kg/ha): 100; Herbicidal activity (Polygonum persicaria): 80; pest or weed control at 250 g/ha (Chenopodium album; 0.25 kg/ha): 100%; Herbicidal activity (Oryza sativa; ORYSA (rice, crop), 0.25 kg/ha, scale 0 to 100): 15"
"CC(C)N(c1c(Cl)ccc(C2=C(O)c3ncccc3CS2(=O)=O)c1Cl)S(C)(=O)=O [I-10, N-[2,6-dichloro-3-(8-hydroxy-6,6-dioxo-5H-thiopyrano[4,3-b]pyridin-7-yl)phenyl]-N-isopropyl-methanesulfonamide]",10,10,,,10,,,70,100,85,85,90,15,98,98,
"Cc1c(C2=C(O)c3ncccc3C(C)(C)S2(=O)=O)cccc1N(C)S(C)(=O)=O [I-14, N-[3-(8-hydroxy-5,5-dimethyl-6,6-dioxo-thiopyrano[4,3-b]pyridin-7-yl)-2-methyl-phenyl]-N-methyl-methanesulfonamide]",0,0,15,20,35,,,,100,98,,100,10,,100,Herbicidal activity (Stellaria media; 0.125 kg/ha): 100; Herbicidal activity (Kochia scoparia; 0.031 kg/ha): 95; Herbicidal activity (Kochia scoparia; 0.063 kg/ha): 100; Herbicidal activity (Ambrosia artemisiifolia; 0.063 kg/ha): 100; Herbicidal activity (Ambrosia artemisiifolia; 0.125 kg/ha): 100; pest or weed control at 2000 g/ha (Echinocloa crus-galli): 98%; Herbicidal activity (Veronica arvensis; 0.031 kg/ha): 100; Herbicidal activity (Veronica arvensis; 0.063 kg/ha): 100
"CCS(=O)(=O)N(C)c1c(Cl)ccc(C2=C(O)c3ncccc3C(C)(C)S2(=O)=O)c1Cl [I-19, N-[2,6-dichloro-3-(8-hydroxy-5,5-dimethyl-6,6-dioxo-thiopyrano[4,3-b]pyridin-7-yl)phenyl]-N-methyl-ethanesulfonamide]",,,,0,,98,100,100,100,98,,100,,98,100,"Herbicidal activity (Capsella bursa-pastoris): 100; pest or weed control at 31 g/ha (Echinocloa crus-galli; 0.031 kg/ha, scale 0 to 100): 98%; pest or weed control at 125 g/ha (Echinocloa crus-galli; 0.125 kg/ha, scale 0 to 100): 100%; pest or weed control at 63 g/ha (Cirsium arvense; 0.063 kg/ha, scale 0 to 100, read-out: Herbicidal activity): 100%"
"CN(c1c(Cl)ccc(C2=C(O)c3ncccc3C(C)(C)S2(=O)=O)c1Cl)S(=O)(=O)CC1CC1 [I-21, 1-cyclopropyl-N-[2,6-dichloro-3-(8-hydroxy-5,5-dimethyl-6,6-dioxo-thiopyrano[4,3-b]pyridin-7-yl)phenyl]-N-methyl-methanesulfonamide]",0,30,,,,98,98,100,100,95,98,,45,100,,"Herbicidal activity (Erigeron canadensis; 0.063 kg/ha, scale 0 to 100): 100; Herbicidal activity (Erigeron canadensis; 0.125 kg/ha, scale 0 to 100): 100; pest or weed control at 31 g/ha (Echinocloa crus-galli; 0.031 kg/ha, scale 0 to 100): 98%; pest or weed control at 2000 g/ha (Echinocloa crus-galli): 100%; pest or weed control at 125 g/ha (Cirsium arvense; scale 0 to 100): 100%"
"CN(c1c(Cl)ccc(C2=C(O)c3ncccc3C(C)(C)S2(=O)=O)c1Cl)S(=O)(=O)C1CC1 [I-28, N-[2,6-dichloro-3-(8-hydroxy-5,5-dimethyl-6,6-dioxo-thiopyrano[4,3-b]pyridin-7-yl)phenyl]-N-methyl-cyclopropanesulfonamide]",,,20,30,,98,98,98,,98,98,98,,,,"Herbicidal activity (Setaria faberi; 0.25 kg/ha): 100; Herbicidal activity (Eriochloa villosa): 95; pest or weed control at 63 g/ha (Echinocloa crus-galli; 0.063 kg/ha, scale 0 to 100): 98%; pest or weed control at 125 g/ha (Echinocloa crus-galli; 0.125 kg/ha, scale 0 to 100): 100%; pest or weed control at 250 g/ha (Echinocloa crus-galli; 0.25 kg/ha, scale 0 to 100): 100%; pest or weed control at 250 g/ha (Amaranthus retroflexus; 0.25 kg/ha, scale 0 to 100): 98%"
"CN(c1c(Cl)ccc(C2=C(O)c3ncccc3C(C)(C)S2(=O)=O)c1C(F)(F)F)S(C)(=O)=O [I-32, N-[6-chloro-3-(8-hydroxy-5,5-dimethyl-6,6-dioxo-thiopyrano[4,3-b]pyridin-7-yl)-2-(trifluoromethyl)phenyl]-N-methyl-methanesulfonamide]",,,,,,,,,,,,,,,,"pest or weed control at 31 g/ha (Abutilon theophrasti; application rate 0.031 kg/ha): 95%; pest or weed control at 63 g/ha (Abutilon theophrasti; application rate 0.063 kg/ha): 90%; pest or weed control at 125 g/ha (Abutilon theophrasti; application rate 0.125 kg/ha): 95%; pest or weed control at 250 g/ha (Abutilon theophrasti; application rate 0.25 kg/ha): 98%; Herbicidal activity (Erigeron canadensis; application rate 0.25 kg/ha): 100; pest or weed control at 31 g/ha (Echinocloa crus-galli; application rate 0.031 kg/ha): 90%; pest or weed control at 63 g/ha (Echinocloa crus-galli; application rate 0.063 kg/ha): 98%; pest or weed control at 125 g/ha (Echinocloa crus-galli; application rate 0.125 kg/ha): 95%; Herbicidal activity (Oryza sativa; crop ORYSA (rice), application rate 0.25 kg/ha): 30; Herbicidal activity (Zea mays; crop ZEAMX (corn, maize), application rate 0.031 kg/ha): 5; Herbicidal activity (Zea mays; crop ZEAMX (corn, maize), application rate 0.063 kg/ha): 5; Herbicidal activity (Zea mays; crop ZEAMX (corn, maize), application rate 0.125 kg/ha): 15; pest or weed control at 31 g/ha (Amaranthus retroflexus; application rate 0.031 kg/ha): 98%; pest or weed control at 63 g/ha (Amaranthus retroflexus; application rate 0.063 kg/ha): 98%; pest or weed control at 125 g/ha (Amaranthus retroflexus; application rate 0.125 kg/ha): 98%; pest or weed control at 250 g/ha (Amaranthus retroflexus; application rate 0.25 kg/ha): 98%"
